Measurements published in US9738902B2, “Modified PYR/PYL receptors activated by ligands” (priority 2013, dated 2017).

What was measured:
PYR1 K59R F108C = biological target: T1, PYR1 K59R F108C (Arabidopsis thaliana, UniProt O49686, F108C/K59R); test: Y2H Pocket Library Screen (HAB1, X-gal); format: cell-based
T1 construct: expressed in transfected cells; host or cells: S. cerevisiae Y190 yeast two-hybrid reporter strain
How it was run: (§1)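 Each mutant receptor was expressed with HAB1 in the Y190 reporter strain. Cells were spotted onto SD agar minus Leu and Trp supplemented with a 100 μM test compound. Plates incubated two days at 30° C, then colonies were lysed with chloroform and stained with X-gal.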

PYR1 K59R F159C = biological target: T2, PYR1 K59R F159C (Arabidopsis thaliana, UniProt O49686, F159C/K59R); test: Y2H Pocket Library Screen (HAB1, X-gal); format: cell-based
T2 construct: expressed in transfected cells; host or cells: S. cerevisiae Y190 two-hybrid reporter strain
T2 sequence (Q9CAJ0 23-511): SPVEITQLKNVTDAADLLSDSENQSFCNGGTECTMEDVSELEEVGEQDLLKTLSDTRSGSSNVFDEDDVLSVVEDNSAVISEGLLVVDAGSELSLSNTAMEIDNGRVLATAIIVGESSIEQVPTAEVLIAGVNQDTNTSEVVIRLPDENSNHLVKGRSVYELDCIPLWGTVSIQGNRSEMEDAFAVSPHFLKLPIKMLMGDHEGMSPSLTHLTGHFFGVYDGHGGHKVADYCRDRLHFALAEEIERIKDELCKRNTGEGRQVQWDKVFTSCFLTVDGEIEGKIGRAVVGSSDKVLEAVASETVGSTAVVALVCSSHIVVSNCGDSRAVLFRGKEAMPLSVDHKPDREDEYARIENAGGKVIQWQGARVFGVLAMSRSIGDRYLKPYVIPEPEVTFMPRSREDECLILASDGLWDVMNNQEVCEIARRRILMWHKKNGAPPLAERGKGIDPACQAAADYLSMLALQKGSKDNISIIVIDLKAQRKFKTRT
T2 sequence (O49686 whole entry K59R/F159C): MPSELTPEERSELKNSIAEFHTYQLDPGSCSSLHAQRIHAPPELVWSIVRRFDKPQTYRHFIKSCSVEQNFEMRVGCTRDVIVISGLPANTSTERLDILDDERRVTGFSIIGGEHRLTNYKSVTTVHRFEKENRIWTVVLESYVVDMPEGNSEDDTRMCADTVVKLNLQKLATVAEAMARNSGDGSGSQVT
How it was run: as §1

PYR1 K59R S122G = biological target: T3, PYR1 K59R S122G (Arabidopsis thaliana, UniProt O49686, K59R/S122G); test: Y2H Pocket Library Screen (HAB1, X-gal); format: cell-based
T3 construct: expressed in transfected cells; host or cells: S. cerevisiae Y190 two-hybrid reporter strain
T3 sequence (O49686 whole entry K59R/S122G): as the sequence (O49686 whole entry K59R/F159C) above, with S122G, C159F counted along it
T3 sequence (Q9CAJ0 23-511 partner): as the sequence (Q9CAJ0 23-511) above
How it was run: as §1

[1] = biological target: T4, PYR1 K59R F108A S122G A160V (Arabidopsis thaliana, UniProt O49686, A160V/F108A/K59R/S122G); test: Y2H NNK Mutagenesis (HAB1, X-gal); format: cell-based
T4 construct: expressed in transfected cells; host or cells: S. cerevisiae Y190 pACT-HAB1
T4 sequence (O49686 whole entry K59R/F108A/S122G/A160V): as the sequence (O49686 whole entry K59R/F159C) above, with F108A, S122G, C159F, A160V counted along it
T4 sequence (Q9CAJ0 23-511 partner): as the sequence (Q9CAJ0 23-511) above
Description: (§2) The preceding efforts identified PYR1^K59R,F108A,S122G, which is responsive to mandipropamid concentrations as low as 1 μM. We next attempted to improve the mandipropamid receptor by screening for additional pocket-located mutations that improve compound responsiveness. We subjected PYR1^K59R,F108A,S122G to two separate mutagenesis experiments. We first examined the effects of adding single additional mutations at each of the other 23 ligand-contacting residues that are not altered in the PYR1^K59R,F108A,S122G backbone, using NNK codon-randomization primers. Each NNK primer was used to generate a pool of PYR1^K59R,F108A,S122G receptors containing additional mutations at a single ligand-contacting residue. DNA for this mutant pool was prepared and then transformed into a pACT-HAB1 MAV99 reporter strain, which allows URA3 based selection of active receptors (Peterson et al., 2010). The pooled yeast cells were plated on media containing 0.5 μM mandipropamid, a concentration too low to allow growth of a control MAV99 pACT-HAB1 reporter strain expressing pBD-PYR1^K59R,F108A,S122G. […] Mutants enabling ligand-dependent interactions were sequenced and plasmid DNA for these mutants was isolated and introduced into Y190 pACT-HAB1 so that X-gal staining could be utilized to evaluate receptor sensitivity. This process was repeated for each of the remaining 22 NNK primers. These efforts yielded 10 mutations (V81C, V81I, V81T, V83L, L87A, F159L, F159M, F159V, A160V, V164I) that enhance the mandipropamid sensitivity of PYR1^K59R,F108A,S122G (see entries labeled “NNK Mutagenesis Screen” in Table 1).

[2] = biological target: T5, PYR1 K59R F108A S122G F159L (Arabidopsis thaliana, UniProt O49686, F108A/F159L/K59R/S122G); test: Y2H NNK Mutagenesis (HAB1, X-gal); format: cell-based
T5 construct: expressed in transfected cells; host or cells: S. cerevisiae Y190 pACT-HAB1
T5 sequence (O49686 whole entry K59R/F108A/S122G/F159L): as the sequence (O49686 whole entry K59R/F159C) above, with F108A, S122G, C159L counted along it
T5 sequence (Q9CAJ0 23-511 partner): as the sequence (Q9CAJ0 23-511) above
Description: as §2

[3] = biological target: T6, PYR1 K59R F108A S122G F159M (Arabidopsis thaliana, UniProt O49686, F108A/F159M/K59R/S122G); test: Y2H NNK Mutagenesis (HAB1, X-gal); format: cell-based
T6 construct: expressed in transfected cells; host or cells: S. cerevisiae Y190 pACT-HAB1
T6 sequence (O49686 whole entry K59R/F108A/S122G/F159M): as the sequence (O49686 whole entry K59R/F159C) above, with F108A, S122G, C159M counted along it
T6 sequence (Q9CAJ0 23-511 partner): as the sequence (Q9CAJ0 23-511) above
Description: as §2

[4] = biological target: T7, PYR1 K59R F108A S122G F159V (Arabidopsis thaliana, UniProt O49686, F108A/F159V/K59R/S122G); test: Y2H NNK Mutagenesis (HAB1, X-gal); format: cell-based
T7 construct: expressed in transfected cells; host or cells: S. cerevisiae Y190 pACT-HAB1
T7 sequence (O49686 whole entry K59R/F108A/S122G/F159V): as the sequence (O49686 whole entry K59R/F159C) above, with F108A, S122G, C159V counted along it
T7 sequence (Q9CAJ0 23-511 partner): as the sequence (Q9CAJ0 23-511) above
Description: as §2

[5] = biological target: T8, PYR1 K59R F108A S122G L87A (Arabidopsis thaliana, UniProt O49686, F108A/K59R/L87A/S122G); test: Y2H NNK Mutagenesis (HAB1, X-gal); format: cell-based
T8 construct: expressed in transfected cells; host or cells: S. cerevisiae Y190 pACT-HAB1
T8 sequence (O49686 whole entry K59R/L87A/F108A/S122G): as the sequence (O49686 whole entry K59R/F159C) above, with L87A, F108A, S122G, C159F counted along it
T8 sequence (Q9CAJ0 23-511 partner): as the sequence (Q9CAJ0 23-511) above
Description: as §2

[6] = biological target: T9, PYR1 K59R F108A S122G V81C (Arabidopsis thaliana, UniProt O49686, F108A/K59R/S122G/V81C); test: Y2H NNK Mutagenesis (HAB1, X-gal); format: cell-based
T9 construct: expressed in transfected cells; host or cells: S. cerevisiae Y190 pACT-HAB1
T9 sequence (O49686 whole entry K59R/V81C/F108A/S122G): as the sequence (O49686 whole entry K59R/F159C) above, with V81C, F108A, S122G, C159F counted along it
T9 sequence (Q9CAJ0 23-511 partner): as the sequence (Q9CAJ0 23-511) above
Description: as §2

[7] = biological target: T10, PYR1 K59R F108A S122G V81I (Arabidopsis thaliana, UniProt O49686, F108A/K59R/S122G/V81I); test: Y2H NNK Mutagenesis (HAB1, X-gal); format: cell-based
T10 construct: expressed in transfected cells; host or cells: S. cerevisiae Y190 pACT-HAB1
T10 sequence (O49686 whole entry K59R/V81I/F108A/S122G): as the sequence (O49686 whole entry K59R/F159C) above, with V81I, F108A, S122G, C159F counted along it
T10 sequence (Q9CAJ0 23-511 partner): as the sequence (Q9CAJ0 23-511) above
Description: as §2

[8] = test system: PYR1 Y58H K59R V81I F108A F159L; test: Y2H Combinatorial Mutagenesis II (HAB1, X-gal); format: cell-based, Arabidopsis
Source text: Both of the above optimization experiments led to the identification of the following mutations that, when introduced one at a time, enhance the mandipropamid sensitivity of PYR1^K59R,F108A,S122G: Y58H, V81C, V81I, V81T, V83L, L87A, F159L, F159M, F159V, A160V and V164I. Given that these each enhance sensitivity on their own, we tested if combinations of these mutations might generate more sensitive receptors. Mutagenic primers for each of the mutations were designed and used simultaneously with the QuickChange Lightning Multi Site-Directed Mutagenesis kit (Agilent, USA) with PYR1^K59R,F108A,S122G template DNA. Individual clones were sequenced to identify bona fide combination mutants, which were transformed into the Y190 pACT-HAB1 yeast strain and assayed for mandipropamid sensitivity. These efforts led to the identification of several improved receptors (“Combinatorial Mutagenesis Screen II”, Table 1), including PYR1^Y58H,K59R,V81I,F108A,S122G,F159L, a hextuple mutant that we have named PYR1^MANDI. Yeast reporter strains expressing this mutant are responsive to mandipropamid concentrations as low as 2 nM (Table 1). Thus, the 5-step mutagenesis protocol we followed led to the construction of a mandipropamid responsive receptor with nanomolar sensitivity.

PYR1 K59R M158G = biological target: T11, PYR1 K59R M158G (Arabidopsis thaliana, UniProt O49686, K59R/M158G); test: Y2H Pocket Library Screen (HAB1, X-gal); format: cell-based
T11 construct: expressed in transfected cells; host or cells: S. cerevisiae Y190 two-hybrid reporter strain
T11 sequence (O49686 whole entry K59R/M158G): as the sequence (O49686 whole entry K59R/F159C) above, with M158G, C159F counted along it
T11 sequence (Q9CAJ0 23-511 partner): as the sequence (Q9CAJ0 23-511) above
How it was run: as §1

PYR1 K59R V164T = biological target: T12, PYR1 K59R V164T (Arabidopsis thaliana, UniProt O49686, K59R/V164T); test: Y2H Pocket Library Screen (HAB1, X-gal); format: cell-based
T12 construct: expressed in transfected cells; host or cells: S. cerevisiae Y190 two-hybrid reporter strain
T12 sequence (O49686 whole entry K59R/V164T): as the sequence (O49686 whole entry K59R/F159C) above, with C159F, V164T counted along it
T12 sequence (Q9CAJ0 23-511 partner): as the sequence (Q9CAJ0 23-511) above
How it was run: as §1

T1 sequence (O49686 whole entry K59R/F108C): as the sequence (O49686 whole entry K59R/F159C) above, with F108C, C159F counted along it
T1 sequence (Q9CAJ0 23-511 partner): as the sequence (Q9CAJ0 23-511) above

Work on `C#CCOc1ccc(CCNC(=O)C(OCC#C)c2ccc(Cl)cc2)cc1OC` (stereo not shown) [Mandipropamid, mandipropamid] yielded a Threshold (PYR1 K59R F108C) of 100 µM, a Threshold (PYR1 K59R F159C) of 100 µM and a Threshold (PYR1 K59R S122G) of 100 µM. The Threshold [1] was 0.25 µM, the Threshold [2] was 0.05 µM and the Threshold [3] was 0.25 µM. It also gave a Threshold [4] of 0.25 µM, a Threshold [5] of 0.25 µM and a Threshold [6] of 0.25 µM. For the same compound, the Threshold [7] was 0.25 µM and the Threshold [8] was 0.01 µM.
`N#Cc1c(Cl)cccc1Cl` [Dichlobenil, dichlobenil] gave a Threshold (PYR1 K59R M158G) of 100 µM and a Threshold (PYR1 K59R V164T) of 100 µM.
